From patent publication US4510136A (priority 1983, dated 1985)

Assays:
Phytophthora infestans = test: whole plant or invertebrate; assay type: in vivo; details: Phytophthora infestans, in Solanum lycopersicum, 168 h, read-out: % Control of Tomato Late Blight, 100 ppm spray, day before inoculation
Monilinia fructicola = test: Stone fruit brown rot control on dipped canned peach halves (Example 86); details: 120 h, 100 ppm dip, percent growth inhibition of colonies after five days
Source text: Several compounds of the previous examples were again dissolved in acetone in an amount equal to 5% of the final volume and then suspended at a concentration of 100 ppm in purified water containing 700 ppm of the surfactant TREM 014 (polyhydric alcohol esters). Canned peach halves were dipped in this suspension for three minutes and then placed to air dry in sterile containers. Upon drying, the peach halves were inoculated with two pieces of Monilinia fructicola mycelium, causal agent of stone fruit brown rot, and incubated in the sterile containers for five days. At that time the radii of the colonies' growth were measured on each peach. […] Percent disease control (percent growth inhibition of colonies on treated peaches as compared to that of colonies on untreated peaches) is expressed in the table below.

Erysiphe cichoracearum = test: Cucumber powdery mildew control on sprayed cucumber seedlings (Example 80); assay type: in vivo; details: Golovinomyces cichoracearum, 168 h, 100 ppm spray, day before inoculation
Pyricularia oryzae = test: whole plant or invertebrate; assay type: in vivo; details: Pyricularia oryzae, 168 h, read-out: % Control of Rice Blast, 100 ppm spray, day before inoculation
[1] = test system: Puccinia recondita var. tritici; test: Wheat leaf rust control on sprayed wheat seedlings (Example 79); assay type: in vivo; details: Puccinia recondita, 168 h; 100 ppm spray, day before inoculation
Outline: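 Disease was scored as leaf rust pustules 7 days after a 24 h, 20° saturated-humidity incubation of seedlings inoculated with P. recondita var. tritici spores. Inoculation followed by one day a run-off spray of 100 ppm compound in water containing 6% acetone and 250 ppm TREM 014.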

Pythium aphanadermatum = test: Pythium control on cotton, seed coating (Example 91); assay type: in vivo; details: 168 h, 2 gm/kg seed
Source text: Several compounds of the previous examples were incorporated into a proprietary formulation and used to coat cotton seeds at a rate of 2 gm/kg seed. After being thoroughly coated, the seeds were allowed to air dry at room temperature. The cotton seeds were then planted into soil amended with the fungus Pythium aphanadermatum, sand, and corn meal at a rate sufficient to kill most untreated seeds. The seeds were held at room temperature for 1 week, after which time disease ratings were made.

Helminthosporium maydis = test: Southern corn leaf blight control on sprayed corn seedlings (Example 83); assay type: in vivo; details: Bipolaris maydis, 192 h, 100 ppm spray, day before inoculation
Outline: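 Corn seedlings were sprayed to run-off with 100 ppm suspensions (6% acetone, 250 ppm TREM 014) and spore-inoculated the following day. Disease and growth reduction were rated after 24 h saturated humidity at 20° plus 7 days in a growth room.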

Venturia inaequalis = test: Apple scab control on sprayed apple seedlings (Example 82); assay type: in vivo; details: Venturia inaequalis, 100 ppm spray, day before inoculation
Cercospora arachidicola = test: Peanut early leafspot control on sprayed peanut seedlings (Example 84); assay type: in vivo; details: Mycosphaerella arachidis, 360 h, 100 ppm spray, day before inoculation; read-out: % Control Peanut Easly Leafspot
Rhizoctonia solani = test: Rice sheath blight control on sprayed rice seedlings (Example 87); assay type: in vivo; details: Rhizoctonia solani, 168 h, 100 ppm spray, day before inoculation
Outline: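 Disease ratings followed 7 days' growth-room incubation of seedlings given a bran/R. solani mycelium inoculum. Inoculation took place one day after spraying to run-off. The spray was a 100 ppm compound suspension in water containing 6% acetone and 250 ppm TREM 014.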

cucumber seedlings = test: Phytotoxicity on cucumber seedlings (Example 80); assay type: in vivo; design: key: G = growth reduction; H = hormonal effects; details: 100 ppm spray
Method: The compounds of the previous example were again dissolved in acetone in an amount equal to 6% of the final volume and then suspended at a concentration of 100 ppm in purified water containing 250 ppm of the surfactant TREM 014 (polyhydric alcohol esters). These suspensions were sprayed to the point of run-off, on cucumber seedlings. The following day, the plants were inoculated with a spore suspension of the fungus Erysiphe cichoracearum, causal agent of cucumber powdery mildew, and incubated in a growth room for 7 days. Disease ratings were then made. Treated plants from successful treatments had little or no powdery mildew in contrast to untreated plants which were covered with powdery mildew. Phytotoxicity in the form of growth reduction or hormonal effects was observed on some of the plants in association with disease control.

Row | Structure (SMILES) | pest or weed control at 100 ppm (Phytophthora infestans) [%] | inhibition of growth at 100 µg/mL (Monilinia fructicola) [%] | pest or weed control at 100 ppm (Erysiphe cichoracearum) [%] | pest or weed control at 100 ppm (Pyricularia oryzae) [%] | pest or weed control at 100 ppm [1] [%] | pest or weed control at 2 g/kg seed (Pythium aphanadermatum) [%] | pest or weed control at 100 ppm (Helminthosporium maydis) [%] | pest or weed control at 100 ppm (Venturia inaequalis) [%] | pest or weed control at 100 ppm (Cercospora arachidicola) [%] | pest or weed control at 100 ppm (Rhizoctonia solani) [%] | Phytotoxicity on cucumber (cucumber seedlings)
1 | C[Si](C)(Cn1cncn1)c1ccccc1 [Dimethyl(phenyl)(1H-1,2,4-triazol-1-ylmethyl)silane] | 0 | 89 | 100 | 0 | 90 | 0 | 0 | 0 | 0 | – | –
2 | C[Si](Cn1cncn1)(c1ccc(-c2ccccc2)cc1)c1ccc(-c2ccccc2)cc1 [bis(1,1'-Biphenyl-4-yl)(methyl)(1H-1,2,4-triazol-1-ylmethyl)silane] | 0 | – | 100 | 100 | 80 | 0 | 0 | 0 | 80 | 90 | –
3 | CCCC[Si](C)(CCCC)Cn1cncn1 [Dibutyl(methyl)(1H-1,2,4-triazol-1-ylmethyl)silane] | 0 | 81 | 0 | 80 | 0 | – | 0 | 0 | 0 | 0 | –
4 | O[Si](Cn1cncn1)(c1ccc(F)cc1)c1ccc(F)cc1 [bis(4-Fluorophenyl)hydroxy(1H-1,2,4-triazol-1-ylmethyl)silane] | 0 | – | 100 | 0 | 90 | – | 100 | 100 | 100 | 0 | H
5 | CCCC[Si](C)(Cn1cncn1)c1ccc(-c2ccccc2)cc1 (stereo not drawn) [(1,1'-Biphenyl-4-yl)butyl(methyl)(1H-1,2,4-triazol-1-ylmethyl)silane] | 0 | 0 | 100 | 100 | 90 | – | 50 | 80 | 100 | 80 | –
6 | C[Si](C)(Cn1cncn1)c1ccc(C(F)(F)F)cc1 [Dimethyl(1H-1,2,4-triazol-1-ylmethyl)(4-trifluoromethylphenyl)silane] | 0 | – | 100 | 0 | 0 | – | 50 | 0 | 0 | 0 | G
7 | COc1ccccc1[Si](C)(C)Cn1cncn1 [(2-Methoxyphenyl)dimethyl(1H-1,2,4-triazol-1-ylmethyl)silane] | 0 | – | 100 | 0 | 0 | – | 70 | 80 | 0 | 0 | G
